Where two headings read alike, the source gives them in different places.
Key:
[1] = biological target: T1, CYP1A2 (Homo sapiens, UniProt P05177); assay: CYP450 inhibition, fluorescent substrate assay, CYP1A2; format: biochemical; settings: E. coli expressed CYP1A2, pH 7.4, probe CEC (5 μM), 10 μM test compound, substrate CEC 5 μM, read-out: 1A2-CEC % inh.
T1 construct: host or cells: E. coli
T1 sequence (P05177 1-516): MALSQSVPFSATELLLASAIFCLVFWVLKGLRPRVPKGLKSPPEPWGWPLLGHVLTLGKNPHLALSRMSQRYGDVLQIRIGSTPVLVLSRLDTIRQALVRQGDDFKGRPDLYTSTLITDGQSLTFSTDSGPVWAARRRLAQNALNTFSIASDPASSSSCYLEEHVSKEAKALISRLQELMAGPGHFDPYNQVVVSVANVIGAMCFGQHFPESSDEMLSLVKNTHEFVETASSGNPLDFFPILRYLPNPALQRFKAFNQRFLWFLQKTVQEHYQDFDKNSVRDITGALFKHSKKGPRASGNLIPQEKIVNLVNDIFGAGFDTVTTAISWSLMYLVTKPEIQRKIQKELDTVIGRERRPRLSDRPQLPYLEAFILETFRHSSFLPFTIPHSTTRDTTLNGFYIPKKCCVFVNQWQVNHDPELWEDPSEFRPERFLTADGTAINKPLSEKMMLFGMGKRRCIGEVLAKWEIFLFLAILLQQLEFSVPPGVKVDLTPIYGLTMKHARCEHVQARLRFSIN
Description: (§1) Assay 4: CYP450 Inhibition […] This fluorescent molecule was measured using a fluorescent plate reader (Victor2 (Wallac) or Fluoroskan (Labsystems)). Compounds inhibiting the enzymatic reaction will result in a decrease of fluorescent signal. CYP P450 enzymes were prepared in house or commercially bought and stored at −80° C. [table] The assay was performed in black 96 well Costar plates. Test compounds were added to a CYP P450 enzyme solution in the presence of an NADPH generating system. After 5 min of preincubation at 37° C., the freshly prepared, phosphate buffered (pH 7.4) substrate solution was added. Known CYP P450 inhibitors were used as positive controls, negative controls were run without CYP P450 enzyme. For final reaction mixture concentrations, see Table 6. […] Then, the reaction was stopped by the addition of 200 μl acetonitrile, and the fluorescent signal was detected. [table] […] Inhibition of TMC114 Metabolisation

[2] = biological target: CYP2C9 (Homo sapiens, UniProt P11712); assay: CYP450 inhibition, fluorescent substrate assay, CYP2C9; format: biochemical
CYP2C9, sequence (P11712 whole entry): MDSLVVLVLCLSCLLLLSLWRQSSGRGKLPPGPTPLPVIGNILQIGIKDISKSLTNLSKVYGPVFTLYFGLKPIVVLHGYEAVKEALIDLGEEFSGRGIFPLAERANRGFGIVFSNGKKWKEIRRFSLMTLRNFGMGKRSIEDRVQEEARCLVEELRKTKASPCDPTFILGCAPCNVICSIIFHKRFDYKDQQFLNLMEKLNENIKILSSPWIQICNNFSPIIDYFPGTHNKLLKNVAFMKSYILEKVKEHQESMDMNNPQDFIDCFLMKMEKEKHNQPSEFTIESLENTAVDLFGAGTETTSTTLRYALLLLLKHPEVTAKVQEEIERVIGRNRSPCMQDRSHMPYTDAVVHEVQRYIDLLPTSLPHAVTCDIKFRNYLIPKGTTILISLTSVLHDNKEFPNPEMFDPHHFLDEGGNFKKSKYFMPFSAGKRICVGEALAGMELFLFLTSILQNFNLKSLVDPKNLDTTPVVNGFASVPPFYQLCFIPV
Description: as §1

[3] = biological target: T2, CYP3A4 (Homo sapiens, UniProt P08684); assay: CYP450 inhibition, fluorescent substrate assay, CYP3A4; format: biochemical; settings: 10 μM test compound; for inhibition at 10 min, 10 μM: E. coli expressed CYP3A4, pH 7.4, probe DBF (1 μM), substrate DBF 1 μM, read-out: 3A4-DBF % inh.
T2 construct: host or cells: E. coli
T2 sequence (P08684 whole entry): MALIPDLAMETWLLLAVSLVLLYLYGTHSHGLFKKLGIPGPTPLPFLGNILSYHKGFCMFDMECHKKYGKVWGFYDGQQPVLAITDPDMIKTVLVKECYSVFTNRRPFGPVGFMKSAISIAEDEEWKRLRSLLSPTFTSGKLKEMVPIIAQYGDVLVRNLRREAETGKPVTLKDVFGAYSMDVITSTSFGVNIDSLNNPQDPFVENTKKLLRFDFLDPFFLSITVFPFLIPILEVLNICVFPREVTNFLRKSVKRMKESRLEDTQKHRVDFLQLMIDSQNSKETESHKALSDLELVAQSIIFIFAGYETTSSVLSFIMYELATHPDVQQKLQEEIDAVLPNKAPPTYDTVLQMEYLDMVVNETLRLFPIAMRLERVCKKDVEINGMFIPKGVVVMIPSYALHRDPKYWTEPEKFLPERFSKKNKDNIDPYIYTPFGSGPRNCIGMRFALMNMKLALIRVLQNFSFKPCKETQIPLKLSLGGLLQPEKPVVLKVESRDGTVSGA
Description: as §1

[4] = biological target: T3, CYP2C19 (Homo sapiens, UniProt P33261); assay: CYP450 inhibition, fluorescent substrate assay, CYP2C19; format: biochemical; settings: E. coli expressed CYP2C19, pH 7.4, probe CEC (25 μM), 10 μM test compound, substrate CEC 25 μM, read-out: 2C19-CEC % inh.
T3 construct: host or cells: E. coli
T3 sequence (P33261 whole entry): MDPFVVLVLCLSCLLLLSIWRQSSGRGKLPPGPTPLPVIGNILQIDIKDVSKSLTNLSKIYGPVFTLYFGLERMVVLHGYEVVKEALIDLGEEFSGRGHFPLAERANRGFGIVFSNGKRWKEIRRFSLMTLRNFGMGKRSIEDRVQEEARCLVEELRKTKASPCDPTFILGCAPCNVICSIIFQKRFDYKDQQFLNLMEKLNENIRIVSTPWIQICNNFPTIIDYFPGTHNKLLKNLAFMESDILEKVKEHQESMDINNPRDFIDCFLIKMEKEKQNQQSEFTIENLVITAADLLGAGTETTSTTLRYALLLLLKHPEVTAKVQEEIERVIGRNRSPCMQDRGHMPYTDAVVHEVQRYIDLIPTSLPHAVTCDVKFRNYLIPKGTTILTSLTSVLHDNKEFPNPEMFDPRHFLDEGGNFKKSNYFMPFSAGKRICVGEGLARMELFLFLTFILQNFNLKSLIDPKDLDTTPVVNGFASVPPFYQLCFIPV
Description: as §1

[5] = in vitro; format: in vitro ADME, human; settings: pH 7.4
Text: Assay 3: Metabolic Stability of Test Compounds (HLM15′)
Sub-cellular tissue preparations are made according to Gorrod et al. (Xenobiotica, 5, pp. 453-462 (1975)) by centrifugal separation after mechanical homogenization of tissue. Human liver tissue is rinsed in ice-cold 0.1 M Tris-HCl (pH 7.4) buffer to wash excess blood. Tissue is then blotted dry, weighed and chopped coarsely using surgical scissors. The tissue pieces are homogenized in 3 volumes of ice-cold 0.1 M phosphate buffer (pH 7.4) using either a Potter-S (Braun, Italy) equipped with a Teflon pestle or a Sorvall Omni-Mix homogenizer, for 7×10 sec. In both cases, the vessel is kept in/on ice during the homogenization process. Tissue homogenates are centrifuged at 9000×g for 20 min at 4° C. using a Sorvall centrifuge or Beckman Ultracentrifuge. The resulting supernatant can be stored at −80° C. and is designated ‘S9’. The S9 fraction is centrifuged at 100,000×g for 60 min at 4° C. using a Beckman ultracentrifuge. The resulting supernatant is carefully aspirated, aliquoted and designated ‘cytosol’. The pellet is re-suspended in 0.1 M phosphate buffer (pH 7.4) in a final volume of 1 ml per 0.5 g original tissue weight and designated ‘microsomes’. All sub-cellular fractions are aliquoted, immediately frozen in liquid nitrogen and stored at −80° C. until use.
Heat-inactivated (10 min at 95° C.) ‘S9’ or microsomes were used for blank experiments. Reaction mixtures were incubated at 37° C. for 5 min, after which the reaction was started by the addition of 0.8 mM β-NADP. The reaction was incubated for 0 or 15 min. Next, the reaction was stopped by addition of 2 volumes of DMSO (or acetonitrile). Samples were centrifuged (10 min, 900×g) and analyzed by LC-MS.

[6] = Cytotoxicity in mock-infected MT4 CMV-EGFP cells; format: cell-based; settings: human, pCC50 = -log10(CC50), read-out: Toxicity MT4 pCC50 (converted)
Text: (§2) Assay 1 &2: Antiviral Activity/Toxicity
Analogously, MT4 cells are engineered with GFP and the constitutional cytomegalovirus (CMV) promotor. This cell line is designated MT4 CMV-EGFP, and can be used for the in vitro evaluation of cytotoxicity of investigational compounds. In this cell line, GFP levels are comparably to those of infected MT4 LTR-EGFP cells. Cytotoxic investigational compounds reduce GFP levels of mock-infected MT4 CMV-EGFP cells.
Effective concentration values such as 50% effective concentration (EC50) can be determined and are usually expressed in μM. An EC50 value is defined as the concentration of test compound that reduces the fluorescence of HIV-infected cells by 50%. The 50% cytotoxic concentration (CC50 in μM) is defined as the concentration of test compound that reduces fluorescence of the mock-infected cells by 50%. The ratio of CC50 to EC50 is defined as the selectivity index (SI) and is an indication of the selectivity of the anti-HIV activity of the inhibitor. The ultimate monitoring of HIV-1 infection and cytotoxicity is done using a scanning microscope. Image analysis allows very sensitive detection of viral infection. Measurements are done before cell necrosis, which usually takes place about five days after infection, in particular measurements are performed three days after infection.
Table 2 lists pEC50 values against the wild-type HIV-1 IIIB strain as well as pCC50 values for a selected number of compounds of the invention. A pEC50 value corresponds to −log10(EC50). A pCC50 value corresponds to −log10(CC50).

[7] = test system: wild-type HIV-1 IIIB strain; assay: Antiviral activity in MT4 LTR-EGFP cellular assay; format: cell-based; settings: read-out: Antiviral Activity IIIB pEC50 (converted)
Description: as §2
The compounds of the present invention were tested for antiviral activity in a cellular assay, which was performed according to the following procedure.
The human T-cell line MT4 is engineered with Green Fluorescent Protein (GFP) and an HIV-specific promoter, HIV-1 long terminal repeat (LTR). This cell line is designated MT4 LTR-EGFP, and can be used for the in vitro evaluation of anti-HIV activity of investigational compounds. In HIV-1 infected cells, the Tat protein is produced which upregulates the LTR promotor and finally leads to stimulation of the GFP reporter production, allowing measuring ongoing HIV-infection fluorometrically.
The ratio of CC50 to EC50 is defined as the selectivity index (SI) and is an indication of the selectivity of the anti-HIV activity of the inhibitor. The ultimate monitoring of HIV-1 infection and cytotoxicity is done using a scanning microscope. Image analysis allows very sensitive detection of viral infection. Measurements are done before cell necrosis, which usually takes place about five days after infection, in particular measurements are performed three days after infection.
A pEC50 value corresponds to −log10(EC50). A pCC50 value corresponds to −log10(CC50).

[8] = biological target: T4, CYP2D6 (Homo sapiens, UniProt P10635); assay: CYP450 inhibition, fluorescent substrate assay, CYP2D6; format: biochemical; settings: E. coli expressed CYP2D6, pH 7.4, probe AMMC (3 μM), 10 μM test compound, substrate AMMC 3 μM, read-out: 2D6-AMMC % inh.
T4 construct: host or cells: E. coli
T4 sequence (P10635 whole entry): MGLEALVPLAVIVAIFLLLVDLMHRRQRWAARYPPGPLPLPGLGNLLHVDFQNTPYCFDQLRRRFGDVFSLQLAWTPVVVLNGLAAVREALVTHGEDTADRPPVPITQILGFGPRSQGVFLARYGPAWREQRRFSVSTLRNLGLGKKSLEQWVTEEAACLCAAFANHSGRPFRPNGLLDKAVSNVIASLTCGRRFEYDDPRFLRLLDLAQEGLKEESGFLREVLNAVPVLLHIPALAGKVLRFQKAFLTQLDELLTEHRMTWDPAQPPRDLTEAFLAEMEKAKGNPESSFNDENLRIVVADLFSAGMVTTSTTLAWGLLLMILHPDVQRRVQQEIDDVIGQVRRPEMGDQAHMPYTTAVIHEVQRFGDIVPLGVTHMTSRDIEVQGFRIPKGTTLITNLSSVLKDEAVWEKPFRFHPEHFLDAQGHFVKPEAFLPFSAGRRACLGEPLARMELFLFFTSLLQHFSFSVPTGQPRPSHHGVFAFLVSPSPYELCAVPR
Description: as §1

[9] = E. coli expressed CYP3A4, pH 7.4, probe BFC (150 μM), substrate BFC 150 μM, read-out: 3A4-BFC % inh.
[10] = E. coli expressed CYP3A4, pH 7.4, probe BQ (60 μM), substrate BQ 60 μM, read-out: 3A4-BQ % inh.
[11] = Human immunodeficiency virus 1, 72 h, wild-type HIV-1 IIIB, MT4 LTR-EGFP cells, three days after infection, pEC50 = -log10(EC50)
[12] = pH 7.4, 10 μM test compound, substrate MFC 200 μM, 30 min, read-out: 2C9-MFC % inh.
[13] = human liver microsomes 1 mg/ml, 5 μM test compound, 15 min, 37° C., read-out: % recovery HLM15
[14] = Human immunodeficiency virus 1, IIIB, 72 h

SMILES	inhibition at 15 min, 10 μM [1] [%]	inhibition at 30 min, 10 μM ([2]; pH 7.4) [%]	inhibition at 30 min, 10 μM [3, 9] [%]	inhibition at 30 min, 10 μM [3, 10] [%]	inhibition at 10 min, 10 μM [3] [%]	inhibition at 30 min, 10 μM [4] [%]	recovery at 15 min, 5 μM ([5]; human) [%]	CC50 at 3 days [6] [µM]	EC50 [7, 11] [µM]	inhibition at 45 min, 10 μM [8] [%]	inhibition at 30 min, 10 μM [2, 12] [%]	recovery at 15 min, 5 μM [5, 13] [%]	EC50 [7, 14] [µM]
CC(C)CN(C[C@@H](O)[C@H](Cc1ccccc1)NC(=O)OCc1cncs1)C(=O)c1cccnc1 [Compound C13]	8	95	81	84	94	67	69	> 100	> 100	64	–	–	–
CC(C)CN(C[C@@H](O)[C@H](Cc1ccccc1)NC(=O)OCc1cncs1)C(=O)c1ccc[nH]1 [Compound C14]	56	98	84	80	91	87	24	89.1	79.4	67	–	–	–
CC(C)CN(C[C@@H](O)[C@H](Cc1ccccc1)NC(=O)OCc1cncs1)C(=O)c1cccc(Cl)c1 [Compound C15]	51	97	75	80	92	92	57	42.7	50.1	41	–	–	–
CC(C)CN(C[C@@H](O)[C@H](Cc1ccccc1)NC(=O)OCc1cncs1)C(=O)c1ccc(Cl)cc1 [Compound C16]	50	97	71	82	92	90	59	40.7	38.9	43	–	–	–
CC(C)CN(C[C@@H](O)[C@H](Cc1ccccc1)NC(=O)OCc1cncs1)C(=O)c1cccc(Br)c1 [Compound C17]	55	–	57	81	93	87	–	36.3	–	46	98	68	41.7
CC(C)CN(C[C@@H](O)[C@H](Cc1ccccc1)NC(=O)OCc1cncs1)C(=O)c1ccc(Br)cc1 [Compound C18]	63	–	83	84	94	93	–	41.7	–	64	98	57	38.9
CC(C)CN(C[C@@H](O)[C@H](Cc1ccccc1)NC(=O)OCc1cccnc1)C(=O)c1ccncc1 [Compound C20]	6	63	88	66	85	41	37	> 100	> 100	13	–	–	–

From US8664391B2, “Amide compounds as boosters of antivirals” (Janssen R&D Ireland Ltd, priority 2008, dated 2014)
